We go through two molecules from PMC5571211 (Scientific Reports, 2017).

Assay [1] relates to 5-LOX product formation (FLAP) in human monocytes. Nature of the assay: 5-LOX product formation in intact human monocytes stimulated with Ca2+-ionophore A23187. The note with it: Monocyte, 5 h, read-out: IC50, formation of LTB4 and its isomers and of 5-H(p)ETE (5-LOX product formation). Format: cell-based. How it is done: Peripheral blood (University Hospital Jena, Germany) was collected from fasted healthy adult donors that were informed about the aim of the study and gave written consent. The protocols for experiments with neutrophils or monocytes were approved by the ethical commission of the Friedrich-Schiller-University Jena (approval number 4292-12/14). All methods were performed in accordance with the relevant guidelines and regulations. Leukocyte concentrates were obtained by centrifugation (4000 × g, 20 min, 20 °C) of heparinized blood preparations. Neutrophils and monocytes were immediately isolated as described before. In brief, leukocyte concentrates were subjected to dextran sedimentation and centrifuged on lymphocyte separation medium (LSM 1077, PAA, Coelbe, Germany). For isolation of pelleted neutrophils, remaining erythrocytes were removed by hypotonic lysis, washed twice with ice-cold PBS and resuspended in medium to a cell density described for the respective experiments. […]
Human recombinant 5-LOX was expressed in E.coli BL21 transformed with pT3-5-LOX plasmid at 30 °C overnight as described before. […] After elution with methanol, samples were analyzed by RP-HPLC using a C-18 Radial-PAK column (Waters, Eschborn, Germany). […]

Assay [2] concerns zymosan-induced peritonitis. Kind of assay: Zymosan-induced peritonitis mouse model. Format: in vivo. The following applies: for myeloperoxidase activity / myeloperoxidase activity, % of vehicle control / leukocyte recruitment: 4 h after zymosan; for vascular permeability, % of vehicle control: 30 min after zymosan. How it is done: The animal studies are reported in accordance with the ARRIVE guidelines for reporting animal research. Male CD-1 mice (33–39 g, 8–9 weeks, Charles River Laboratories, Calco, Italy) were housed in a controlled environment (21 ± 2 °C) and provided with standard rodent chow and water ad libitum. Mice received a standard diet containing 5.7% fat, 18.9% protein and 57.3% carbohydrate (Global Diet 2018, ENVIGO, Italy). The fatty acid composition was according to Matias et al.[67].
Prior to experiments, all mice were allowed to acclimate for 5 days and kept at 12 h light–dark schedule, in which experiments were performed during the light phase. Animal care was in compliance with Italian regulations on protection of animals used for experimental and other scientific purpose (Ministerial Decree 116/92) and with the European Economic Community regulations (Official Journal of E.C. L 358/1 12/18/1986). Animal studies were approved by the local ethical committee of the University of Naples Federico II on 27 February 2014 (approval number 2014/18760). […] Zymosan (Sigma, Milan, Italy) was prepared and injected i.p. as a final suspension (2 mg/mL) in 0.9% saline solution after boiling, centrifugation and sonication. Peritoneal lavage (3 mL of cold PBS) was performed after CO2-euthanasia at indicated time points, followed by 60 sec of gentle manual massage. Two mL of exudates were collected and infiltrated cells were determined using a Burker chamber and vital trypan blue staining. Pelleted samples (18,000 × g, 5 min, 4 °C) were frozen (−80 °C) and assayed for myeloperoxidase (MPO) activity (pellet) or LTC4 and LTB4 formation (supernatant), respectively.
MPO of neutrophils was examined as follows: pellets from exudates were resuspended in PBS (50 mM, pH 6) containing 0.5% hexadecyltrimethyl-ammonium bromide and sonicated, followed by 3 freeze-thawing cycles and a final sonication. Supernatants of centrifuged samples (18,000 × g, 30 min) were added to a 96-well plate and reactions were initiated by addition of PBS (50 mM, pH 6) containing o-dianisidine (0.167 mg/mL) and hydrogen peroxide (0.0005%). Absorbance was monitored in the kinetic mode (Biorad Imark microplate) and levels of MPO were determined using a calibration curve with human neutrophils as reference standard. MPO levels were expressed as units MPO per mouse. LTC4 and LTB4 formation within the supernatants were determined by EIA (Enzo Life Sciences International Inc., Lörrach, Germany) according to manufacturer’s protocol.
Vascular permeability was assessed according to a previous report. Briefly, 0.3 mL of 0.9% saline solution supplemented with Evans blue dye (40 mg/kg) was injected intravenously (i.v.) into the caudal vein followed by immediate peritonitis induction (using zymosan). After 30 min, peritoneal lavage exudates of CO2-euthanized were collected as described above. Absorbance of the centrifuged supernatants (3,000 × g, 5 min) was measured at 650 nm (Beckman Coulter DU730).

For a further assay, the target named is T1, LTC4S (Homo sapiens, UniProt Q16873).
T1 construct: expressed in transfected cells; host or cells: HEK293 stably expressing LTC4S (geneticin selection), microsomal fraction
T1 sequence (Q16873 1-150): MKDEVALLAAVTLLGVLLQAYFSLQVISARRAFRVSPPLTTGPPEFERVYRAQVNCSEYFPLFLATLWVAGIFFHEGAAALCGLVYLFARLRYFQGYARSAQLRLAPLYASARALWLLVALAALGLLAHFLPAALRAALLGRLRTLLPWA
Nature of the assay: LTC4S activity in microsomes of LTC4S-expressing HEK293 cells. Type of assay: biochemical. The note with it: cell-free, up to 10 µM. The protocol:
LTC4S activity was assayed by using microsomes of HEK293 cells stably expressing LTC4S, as previously published. In brief, HEK293 expressing LTC4S were cultivated as described above and selected using geneticin (400 µg/mL). Isolation of microsomes was performed as described for mPGES-1 above and microsomes were diluted in potassium phosphate buffer (0.1 M, pH 7.4) with glutathione (5 mM) to a final concentration of 2.5 µg protein per mL. […] To determine enzyme activity, acidified PBS and d5-LTC4-methyl ester (5 ng) as internal standard were added prior solid phase extraction and LTC4-methyl ester formation was analyzed by UPLC-MS/MS as described.

Setting [3] is: mice, 1 mg/kg i.p. 30 min before zymosan.

Like-named read-outs stand apart in the source and are kept apart here.

In the case of `CC(C)c1ccc2c(c1)c(SC(C)(C)C)c(CC(C)(C)C(=O)O)n2Cc1ccc(Cl)cc1` [MK886, 3-[1-(4-chlorobenzyl)-3-t-butyl-thio-5-isopropylindol-2-yl]-2,2 - dimethylpropanoic acid], in assay [1] (intact human monocytes, Ca2+-ionophore A23187, no AA supplementation), the IC50 is ~3 nM. In assay [2] (setting [3]), the LTB4 peritoneal levels result is reported as “comparable to the effect of MK886” and the LTC4 peritoneal levels entry is “comparable to the effect of MK886”. Further, in assay [2] (mice, 1 mg/kg i.p.), the myeloperoxidase activity amounted to 0.72 ± 0.13 U/mL and the “myeloperoxidase activity, % of vehicle control” value is reported as 58.5 ± 10.6 % of vehicle control. Moreover, the “vascular permeability, % of vehicle control” value in assay [2] (mice, 3 mg/kg i.p.) was 48.6 ± 3.2 % of vehicle control. In addition, the leukocyte recruitment entry in assay [2] (mice, MK886 i.p.) is reported as “block of leukocyte recruitment”.
Turning to `Cc1cc(OCc2nc3ccccc3s2)ccc1NC(=O)Nc1ccc(Cl)c(Cl)c1` [diflapolin, N-[4-(benzothiazol-2-ylmethoxy)-2-methylphenyl]-N′-(3,4-dichlorophenyl)urea], the IC50 in assay [1] (Homo sapiens) was 30 nM. For the same molecule, at LTC4S, the “inhibition of LTC4S activity” value is recorded as “failed to inhibit”. For the same molecule, in assay [2] (mice, 10 mg/kg i.p.), the “vascular permeability, % of vehicle control” value was 55.7 ± 14.4 % of vehicle control; the myeloperoxidase activity was 0.65 ± 0.15 U/mL; the “myeloperoxidase activity, % of vehicle control” value is recorded as 52.8 ± 12.2 % of vehicle control. Further, the LTC4 peritoneal levels entry in assay [2] (mice, 1, 3 and 10 mg/kg i.p. 30 min before zymosan, analysed 30 min after zymosan) is reported as “significant reduction”. Further, the LTB4 peritoneal levels entry in assay [2] (mice, 1, 3 and 10 mg/kg i.p. 30 min before zymosan, analysed 4 h after zymosan) is “significant reduction”. The leukocyte recruitment entry in assay [2] (mice, 1, 3 and 10 mg/kg i.p., dose-dependent) was “block of leukocyte recruitment”.

By IC50 is commonly meant the point on the concentration scale where inhibition reaches its midpoint.
